The record followed here is paper PMC5908784, “Extracellular loops 2 and 3 of the calcitonin receptor selectively modify agonist binding and efficacy” (Biochemical Pharmacology, 2018).

Test in all cases: Homologous whole cell competition binding
What all share (details): homologous competition of 125I-sCT(8-32), whole cells, mean ± S.E.M., SEM

For one test, the target named is T1, hCTR I279A (Homo sapiens, UniProt P30988, I279A).
T1 construct: expressed in transfected cells
T1 sequence (P30988 25-474 I279A): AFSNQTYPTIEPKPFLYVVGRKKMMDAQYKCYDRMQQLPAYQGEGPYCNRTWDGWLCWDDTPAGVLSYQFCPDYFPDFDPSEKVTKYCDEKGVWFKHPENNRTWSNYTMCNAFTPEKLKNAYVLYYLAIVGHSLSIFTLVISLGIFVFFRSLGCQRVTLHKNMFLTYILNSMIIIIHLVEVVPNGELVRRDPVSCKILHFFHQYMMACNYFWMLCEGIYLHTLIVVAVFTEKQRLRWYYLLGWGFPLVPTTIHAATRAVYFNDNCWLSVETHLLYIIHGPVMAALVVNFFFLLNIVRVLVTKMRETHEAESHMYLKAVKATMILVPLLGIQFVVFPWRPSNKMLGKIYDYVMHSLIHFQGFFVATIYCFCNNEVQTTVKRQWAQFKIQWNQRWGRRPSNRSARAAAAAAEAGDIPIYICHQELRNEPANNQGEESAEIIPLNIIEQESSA
The essentials:
(§1)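 Affinity comes from self-competition of sCT(8-32) against its iodinated form on intact cells, held at 4 °C overnight. Bound counts were read on a gamma counter, fitted to a 3-parameter logistic curve and converted with Cheng-Prusoff.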

Another test concerns the target T2, hCTR V293A (Homo sapiens, UniProt P30988, V293A).
T2 construct: c-Myc (N); expressed in transfected cells
T2 sequence (P30988 25-474 V293A): T1 sequence (P30988 25-474 I279A) with A255I, V269A
Put shortly: as §1

A further test addresses T3, hCTR W361A (Homo sapiens, UniProt P30988, W361A).
T3 construct: expressed in transfected cells
T3 sequence (P30988 25-474 W361A): T1 sequence (P30988 25-474 I279A) with A255I, W337A
Put shortly: as §1

For a further test, the target named is T4, hCTR Y374A (Homo sapiens, UniProt P30988, Y374A).
T4 construct: c-Myc (N); expressed in transfected cells
T4 sequence (P30988 25-474 Y374A): T1 sequence (P30988 25-474 I279A) with A255I, Y350A
Put shortly:
as §1

Positions count from the first letter of the chain named. pKi: −log10 of the molar value. Where no end group is shown, it is not given here.

Broadly, the pKi is −log10 of the Ki, conventionally taken in molar units. The low end stands for a large Ki, the high end for a small Ki. As to “VLGKLSQELHKLQTYPRTNTGSGTP-NH2 [sCT(8-32)]”, the pKi on hCTR I279A is 9.72; on hCTR V293A, 9.75; at hCTR W361A it was 9.55; on hCTR Y374A, 9.83.
